Laboratory results taken from patent US9547017B2, “Genetically encoded fluorescent sensors for detecting intracellular signalling through diacylglycerol pathways” (MONTANA MOLECULAR LLC, priority 2012, dated 2017).
“Also recorded” adds a separate entry of the source.

Legend:
intracellular Ca2+ = assay: Independence test: ionomycin raises intracellular Ca2+ in cells expressing Ca2+, DAG or PIP2 sensors; assay type: cell-based
Text: (§1) To test for the independence of the signals being detected by these sensors, we increased intracellular Ca2+ by applying ionomycin.

P2Y11 receptor [1] = target: T1, P2Y11 receptor (Homo sapiens, UniProt Q96G91); assay: Multiplex DAG2 and R-GECO1 sensors with P2Y11 receptor in HEK 293 cells; assay type: cell-based; parameters: expressed in transfected cells; host or cells: HEK 293; settings: HEK cells expressing human P2Y11 receptor
T1 sequence (Q96G91 1-374): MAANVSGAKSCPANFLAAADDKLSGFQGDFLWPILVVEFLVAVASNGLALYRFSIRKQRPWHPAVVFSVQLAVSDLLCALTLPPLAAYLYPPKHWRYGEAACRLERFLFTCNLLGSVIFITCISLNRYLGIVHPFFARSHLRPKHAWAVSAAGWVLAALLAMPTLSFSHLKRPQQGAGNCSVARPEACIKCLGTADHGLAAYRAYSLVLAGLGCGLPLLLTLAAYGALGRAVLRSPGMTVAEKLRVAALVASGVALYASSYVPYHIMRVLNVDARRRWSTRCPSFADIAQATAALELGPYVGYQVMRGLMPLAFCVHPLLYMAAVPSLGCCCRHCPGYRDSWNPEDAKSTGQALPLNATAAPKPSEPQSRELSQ
Text: To explore whether multiplex sensors could be used to detect this distinct signaling pattern, we expressed the human P2Y11 receptor with combinations of the Downward DAG2, or Upward DAG2, and R-GECO1 sensors. […] (FIG. 8).

P2Y11 receptor [2] = target: T1, P2Y11 receptor; settings: reported in reference (29), different cell line; cited from earlier work
DAG = DAG sensor fluorescence change on carbachol stimulation of co-expressed M1 receptor in HEK 293 cells (time-lapse imaging); assay type: cell-based, human
Text: These changes were easily detected in time-lapse imaging and occurred in all transfected cells with remarkably little cell to cell variability. […] The signals then returned to baseline quite slowly (t-170 seconds, FIG. 3C).

DAG sensors [3] = assay: Direct activation of DAG sensors in cells by phorbol ester PDBu; assay type: cell-based
Text: In transient expression it is possible to produce high concentrations of the protein-based sensor than the analyte itself [Falkenburger et al].
as §1

PIP2 and DAG = assay: Co-expressed PIP2r and DAG sensors, M1 receptor activation (PLC substrate and product); assay type: cell-based; settings: PIP2r co-expressed with DAG sensor, FIG. 7A
Text: Stimulation of phospholipase C cleaves PIP2 and produces DAG. Co-expression of the Upward DAG2 or Downward DAG2 sensor with the PIP2r sensor provides a new view of both the substrate and product of phopholipase C (FIG. 7). To our knowledge, this is the first time that genetically encoded biosensors have been used to simultaneously measure substrate and product. M1 receptor activation produced a remarkable change in the intensity and distribution of both sensors. […] The onset of the response of the Upward and Downward DAG2 sensors, as well as PIP2r, is kinetically quite similar. However the return to baseline is considerably slower for the Downward DAG2 and PIP2r sensors (FIG. 7B).

DAG sensors [4] = assay: Effect of DMSO on the DAG assay; assay type: cell-based
Procedure: Many compound libraries are carried by DMSO, a vehicle that can cause artifacts in live cell assays. […] At moderate final concentrations of 0.1 to 1%, the DMSO produced no effect, while at higher concentrations artifactual, DMSO triggered changes in fluorescence did occur. The effect of DMSO on the DAG sensors was negligible at final concentrations of 0.1 to 1%, but detectable at 2% or greater.

PIP2 = PIP2 sensor response to M1 receptor activation; assay type: cell-based; settings: FIGS. 6A and B
Text: Phospholipase C hydrolyses PIP2 to produce both DAG and IP3. To independently check the fidelity and kinetics of the DAG sensors, we created a red fluorescent PIP2 sensor by fusing the pleckstrin homology (PH) domain of PLCδ to two different components of the recently described dimerization-dependent red fluorescent proteins (26). Previous work has shown that the translocation of the PLCδ PH domain can be used to measure PIP2 turnover (27), and if the PH domains carry FRET pairs of fluorescent proteins a small change in FRET occurs when PLC is activated (28). […] Because this sensor relies on the fluorescence of one protein, rather than a FRET pair, it could be multiplexed with the green fluorescent DAG sensors for simultaneous measurement of both PIP2 and DAG in living cells. The amino acid sequences of this pair of constructs forming a novel PIP2 sensor are shown as SEQ ID NO:70 and SEQ ID NO:71, and the nucleotide sequences encoding them are shown as SEQ ID NO:72 and SEQ ID NO:73.

[5] = carbachol stimulation of the M1 receptor

C[C@H](CCC(=O)O)C[C@H](C)C[C@H](C)C(=O)/C=C(\O)[C@H](C)C[C@H](C)C/C=C/[C@@H](C)[C@@H](O)[C@@H](C)[C@@H](O)C[C@@H]1CC[C@@](C)([C@H]2CC[C@@](C)([C@@H](C)O)O2)O1 [ionomycin]
effect of raising intracellular Ca2+ on DAG and PIP2 levels (intracellular Ca2+; ionomycin added before PdBU or M1 receptor activation, FIGS. 6C and D): no apparent effect on the DAG and PIP2 levels | R-GECO (Ca2+ sensor) response (intracellular Ca2+; ionomycin applied, FIG. 4C): produces a change in R-GECO; also recorded: robust R-GECO1 response | change in DAG sensor (intracellular Ca2+; ionomycin applied, FIG. 4C): not Downward DAG; also recorded: no detectable change in the DAG sensor

O=c1ccn([C@@H]2O[C@H](COP(=O)(O)OP(=O)(O)OP(=O)(O)O)[C@@H](O)[C@H]2O)c(=O)[nH]1 [UTP]
Ca2+ response (R-GECO1) (P2Y11 receptor [1]): triggered a Ca2+ response; also recorded: transient increase in Ca2+ | PLC pathway signaling (Upward or Downward DAG2 sensors) (P2Y11 receptor [1]): causing a Ca2+ transient in a very different way; also recorded: producing a Ca2+ transient through a different pathway | signaling at the P2Y11 receptor as reported (P2Y11 receptor [2]): only triggers a Ca2+ response

Downward DAG: DAG sensor: cpEGFP at K152 of PKC delta truncated at L122; fluorescence decreases upon binding to DAG
loss (decrease) in fluorescence (DAG; [5]): 40% | time over which the fluorescence loss occurs (DAG; mean of 4 cells): 15 s

CCCC(=O)O[C@@H]1[C@@H](C)[C@@]2(O)[C@@H](C=C(CO)C[C@]3(O)C(=O)C(C)=C[C@@H]23)[C@@H]2C(C)(C)[C@]12OC(=O)CCC [PDBu]
additional change in sensor fluorescence on PDBu applied after carbachol (DAG sensors [3]; cells first stimulated with carbachol, then PDBu): additional increase in fluorescence; also recorded: additional doubling of the change in intensity | activation of DAG sensor by PDBu added after ionomycin (DAG sensors [3]; subsequent addition after ionomycin, FIG. 4C): activates Downward DAG; also recorded: subsequently activated

Upward DAG: DAG sensor: cpEGFP at N158 of PKC delta truncated at L122; fluorescence increases upon binding to DAG
change in sensor fluorescence on M1 receptor activation (PIP2 and DAG): green fluorescence increases | fluorescence increase (DAG; [5]): 45%

C[S+](C)[O-] [DMSO]
effect of DMSO on the DAG sensors (DAG sensors [4]; 2% or greater): detectable | effect of DMSO on the DAG sensors (DAG sensors [4]; final concentrations of 0.1 to 1%): negligible; also recorded: no effect

Nc1ncnc2c1ncn2[C@@H]1O[C@H](COP(=O)(O)OP(=O)(O)OP(=O)(O)O)[C@@H](O)[C@H]1O [ATP]
Ca2+ response (R-GECO1) (P2Y11 receptor [1]): triggered a Ca2+ response; also recorded: transient increase in Ca2+ | PLC pathway signaling (Upward or Downward DAG2 sensors) (P2Y11 receptor [1]): triggers signaling via the phospholipase C pathway; also recorded: activating the PLC pathway | signaling at the P2Y11 receptor as reported (P2Y11 receptor [2]): produces inositol phosphate turnover and transient Ca2+ signaling

B1: PIP2 sensor: red fluorescent PIP2 sensor: PH domain of PLCδ fused to each member of the ddRFP pair (protein)
chain 1: MVSKSEEVIKEFMRFKVRLEGSMNGHEFEIEGEGEGRPYEGTQTAKLKVTKGGPLPFAWDILSPQIMYGSKAYVKHPADVPDYMKLSFPEGFKWERVMHFEDGGLVTVTQDTSLQDGTLIYKVKMRGTNFPPDGPVMQKKTLGWDYATERLYPEDGVLKGELLGRLKLKDGGLNLVEFKTIYMAKKPVQLPGYYFVDTKLGITSHNEDYTIVEQYERSEGRHHLGMDELYKRSRAQASNSAVDGTAGPGSMDSGRDFLTLHGLQDDEDLQALLKGSQLLKVKSSSWRRERFYKLQEDCKTIWQESRKVMRTPESQLFSIEDIQEVRMGHRTEGLEKFARDVPEDRCFSIVFKDQRNTLDLIAPSPADAQHWVLGLHKIIHHSGSMDQRQKLQHWIHSCLRKADKNKDNKMSFKELQNFLKELNIQ
chain 2: MVSKGEETIKEFMRFKVRMEGSMNGHEFEIEGEGEGRPYEGTQTAKLKVTKGGPLPFAWDILSPQFMYGSEAYVRHPADIPDYKKLPFPEGFKWERVMNFEDGGLVTVTQDSSLQDGTLICKVKMRGTNFPPDGPVMQKKTMGWEASTEMLYPEDGVLKGHSYQALKLKDGGHYLVEFETIYMAKKPVQLPGDYCVDTKLDITSHNEDYTIVEQYGRSEGRHRLGMDERYKRSRAQASNSAVDGTAGPGSMDSGRDFLTLHGLQDDEDLQALLKGSQLLKVKSSSWRRERFYKLQEDCKTIWQESRKVMRTPESQLFSIEDIQEVRMGHRTEGLEKFARDVPEDRCFSIVFKDQRNTLDLIAPSPADAQHWVLGLHKIIHHSGSMDQRQKLQHWIHSCLRKADKNKDNKMSFKELQNFLKELNIQ
modifications: Synthetic sequence, a.a. sequence of PIP2 sensor fragment [PIP2-A1]; Synthetic sequence, a.a. sequence of PIP2 sensor fragment [PIP2-B1]
notes: red fluorescent PIP2 sensor: PH domain of PLCδ fused to each member of the ddRFP pair
red fluorescent signal at the membrane with M1 receptor activation (PIP2): rapidly disappeared | change in sensor fluorescence on M1 receptor activation (PIP2 and DAG): red fluorescence decreases
